Assay results reported in patent publication US20260035459A1, “HUMANIZED CHIMERIC ANTIGEN RECEPTORS TARGETING THE B-CELL RECEPTOR OF CHRONIC LYMPHOCYTIC LEUKEMIA AND USES THEREOF” (AVA LIFESCIENCE GMBH, priority 2022, published 2026).

Legend:
OCI-Ly1 wt cells = format: cell-based; conditions: human, 24 h
Experimental: (§1) The graph depicts a titration of ibrutinib to determine toxicity towards OCI-Ly1 cell models upon administration of serial dilutions of ibrutinib (11 steps, ranges 0.01 to 20 μM) to OCI-Ly1 wt or OCI-Ly1_R110 cells for 24 hours. Cell growth in percent was plotted as total numbers of ibrutinib-treated cells relative to the total number of untreated cells. […] This dose was thus chosen for further testing of CAR T efficacy.
(§2) Coadministration of BTK-inhibitors like ibrutinib-a BTK/ITK inhibitor known to restore T cell functionality—to CAR T cell can have additive anti-tumor effects. To test this in the R110 CAR T setting, ibrutinib toxicity for OCI-Ly1 target cells was assessed first. For this, 2×10^4 OCI-Ly1 wt and OCI-Ly1_R110 cells were seeded in 200 μl culture media supplemented with serial dilutions of ibrutinib (PCI-32765, Selleck Chemicals, Cat. S2680) ranging from 0.01 to 20 μM. Cells grown under the same conditions without ibrutinib served as control. After 24h incubation, viable (trypan blue exclusion) cells were counted using the Vi-CELL XR system (Beckman Coulter). Cell growth in percent was then plotted as total numbers of ibrutinib-treated cells relative to the total number of untreated cells (FIG. 10). […] This dose was thus chosen for further testing of CAR T efficacy.

OCI-Ly1_R110 cells = format: cell-based; conditions: human, 24 h
Experimental: as §1, §2

## C=CC(=O)N1CCC[C@@H](n2nc(-c3ccc(Oc4ccccc4)cc3)c3c(N)ncnc32)C1 [ibrutinib]
OCI-Ly1 wt cells
  highest dose that does not result in a viability drop of target cells: 0.08 UM
OCI-Ly1_R110 cells
  highest dose that does not result in a viability drop of target cells: 0.08 UM
